Measured values taken from patent US20230147962A1, “FIBROBLAST ACTIVATION PROTEIN LIGANDS FOR TARGETED DELIVERY APPLICATIONS” (PHILOCHEM AG, priority 2020, published 2023).
*1 amine or outer side, *2 acyl side, *3 side chain or, on linkers, in order; H or OH if unused. Where a SMILES comes first, the peptide text is derived from it. The star is where a group is joined. Fluorescein(5-Mal) = O=C1OC2(c3ccc(O)cc3Oc3cc(O)ccc32)c2ccc(N3C(=O)CC(*)C3=O)cc21; X1 = N#C[C@@H]1CC(F)(F)CN1C(=O)CNC(=O)c1ccnc2c(N*)cccc12; Suc = O=C(CCC(=O)[*:2])[*:1]

Tests used:
[1] = system: SK-RC-52.hFAP renal cell carcinoma xenografts; experiment: Ex vivo targeting experiment, SK-RC-52.hFAP xenografts; format: in vivo, BALB/C nu/nu mice; conditions: 40 nmol intravenous, ex vivo organ images 1 h
Procedure: SK-RC-52.hFAP cells were grown to 80% confluence and detached with Trypsin-EDTA 0.05%. Cells were re-suspended in HBSS medium to a final concentration of 5×10^7 cells/mL.
Mice bearing subcutaneous SK-RC-52.hFAP tumour was injected intravenously with conjugate 15 (40 nmol in sterile PBS, pH 7.4). Animals were sacrificed by CO2 asphyxiation 1h after the intravenous injection and the organs and the tumour were excised, snap-frozen in OCT medium and stored at −80° C. Cryostat sections ([…]) were cut and nuclei were stained with Fluorescence Mounting Medium (Dako Omnis, Agilent). Images were obtained using an Axioskop2 mot plus microscope (Zeiss) and analyzed by ImageJ 1.53 software.

hFAP = target: T1, hFAP (Homo sapiens, UniProt Q12884); experiment: Affinity measurement to human FAP by fluorescence polarization; format: binding; conditions: binder 10 nM, read-out: KD to hFAP
T1 construct: made in house; host or cells: CHO cells, transient gene expression, purified from supernatant
T1 sequence (Q12884 with tags, fused parts or gaps): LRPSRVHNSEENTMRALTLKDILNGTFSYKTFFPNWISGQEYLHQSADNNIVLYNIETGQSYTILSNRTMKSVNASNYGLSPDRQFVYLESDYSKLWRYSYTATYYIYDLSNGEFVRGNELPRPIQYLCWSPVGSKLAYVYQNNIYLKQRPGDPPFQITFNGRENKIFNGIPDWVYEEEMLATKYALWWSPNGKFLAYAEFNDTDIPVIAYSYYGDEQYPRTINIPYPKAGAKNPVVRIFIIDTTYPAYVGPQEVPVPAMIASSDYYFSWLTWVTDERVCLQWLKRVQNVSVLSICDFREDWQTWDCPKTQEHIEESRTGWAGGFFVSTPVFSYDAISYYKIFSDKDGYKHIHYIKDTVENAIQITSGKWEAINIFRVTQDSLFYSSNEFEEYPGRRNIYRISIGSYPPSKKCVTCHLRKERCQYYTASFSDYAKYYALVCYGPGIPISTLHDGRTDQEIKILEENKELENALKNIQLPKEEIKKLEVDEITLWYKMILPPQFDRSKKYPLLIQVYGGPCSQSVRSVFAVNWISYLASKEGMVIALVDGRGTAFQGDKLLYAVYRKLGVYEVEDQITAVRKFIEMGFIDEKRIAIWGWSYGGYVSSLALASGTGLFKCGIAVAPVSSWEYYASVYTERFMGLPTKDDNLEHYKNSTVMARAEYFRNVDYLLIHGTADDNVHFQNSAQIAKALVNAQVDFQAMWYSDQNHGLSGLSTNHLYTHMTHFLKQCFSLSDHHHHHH
Procedure: Fluorescence polarization measurements were performed in 384-well plates (non-binding, ps, f-bottom, black, high volume, 30 μL final volume). A stock solution of human FAP (4 μM) was serially diluted with buffer (50 mM Tris, 100 mM NaCl, 1 mM EDTA, pH=7.4), while the final concentration of the binders was kept constant at 10 nM. The measurements were carried out after incubating for 30 min at 37° C. in the dark by fluorescent polarization (FIG. 4).
(§1) Fluorescence polarization experiments were performed in 384-well plates (non-binding, ps, f-bottom, black, high volume, 30 μL final volume). Stock solutions of human FAP (4 μM) and murine FAP (5 μM) were serially diluted with buffer (50 mM Tris, 100 mM NaCl, 1 mM EDTA, pH=7.4), while the final concentration of the binders was kept constant at 10 nM. The fluorescence anisotropy was measured on a TECAN microtiter plate reader. Experiments were performed in triplicate and the mean anisotropy values fitted using Prism 7.

SK-RC-52.hFAP = experiment: Confocal microscopy on SK-RC-52.hFAP; format: cell-based; conditions: t=0 and 1 h
Procedure: (§2) SK-RC-52.hFAP and SK-RC-52 cells were seeded into 4-well cover slip chamber plates at a density of 10^4 cells per well in RPMI medium (1 mL) supplemented with 10% FCS, AA and HEPES (10 mM) and allowed to grow for 24 hours under standard culture conditions. Hoechst 33342 nuclear dye was used to stain nuclear structures.
(§3) The culture medium was replaced with fresh medium containing conjugate 15 (100 nM). Randomly selected colonies imaged on a SP8 confocal microscope equipped with an AOBS device (Leica Microsystems).

HT-1080 Wild type = experiment: Confocal microscopy on HT-1080 wild type; format: cell-based; conditions: negative control cells
Procedure: as §2, with “HT-1080.hFAP” for “SK-RC-52.hFAP”, “HT-1080” for “SK-RC-52”, “DMEM” for “RPMI”
as §3

murine FAP = target: T2, murine FAP (Mus musculus, UniProt P97321); experiment: Affinity measurement to murine FAP by fluorescence polarization; format: binding; conditions: binder 10 nM, read-out: KD to mFAP
T2 sequence (P97321 1-761): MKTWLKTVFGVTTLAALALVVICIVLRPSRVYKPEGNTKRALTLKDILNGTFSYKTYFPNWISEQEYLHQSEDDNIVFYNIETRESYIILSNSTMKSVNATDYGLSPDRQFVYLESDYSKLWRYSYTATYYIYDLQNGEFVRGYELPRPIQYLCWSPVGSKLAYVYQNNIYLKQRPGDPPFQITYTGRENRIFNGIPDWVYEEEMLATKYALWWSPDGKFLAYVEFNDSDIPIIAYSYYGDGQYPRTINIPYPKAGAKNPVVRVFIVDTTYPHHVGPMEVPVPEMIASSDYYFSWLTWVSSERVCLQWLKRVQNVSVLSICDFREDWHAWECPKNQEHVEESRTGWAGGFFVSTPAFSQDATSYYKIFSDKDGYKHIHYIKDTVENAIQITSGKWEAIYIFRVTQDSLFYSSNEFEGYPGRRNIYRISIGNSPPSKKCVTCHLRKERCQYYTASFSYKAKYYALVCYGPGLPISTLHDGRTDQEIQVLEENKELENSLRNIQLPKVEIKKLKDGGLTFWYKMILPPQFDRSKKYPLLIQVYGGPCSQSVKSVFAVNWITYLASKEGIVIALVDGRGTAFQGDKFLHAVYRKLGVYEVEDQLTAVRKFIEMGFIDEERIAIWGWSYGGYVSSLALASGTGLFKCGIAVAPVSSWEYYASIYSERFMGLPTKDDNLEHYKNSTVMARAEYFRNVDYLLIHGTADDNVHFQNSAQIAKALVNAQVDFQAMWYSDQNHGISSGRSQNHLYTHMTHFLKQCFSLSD
Procedure: as §1

SK-RC-52 Wild type = experiment: Confocal microscopy on SK-RC-52 wild type; format: cell-based; conditions: negative control cells
Procedure: as §2, §3

N#C[C@@H]1CC(F)(F)CN1C(=O)CNC(=O)c1ccnc2c(NC(=O)CCC(=O)N[C@@H](CC(=O)O)C(=O)N[C@@H](CCCCN)C(=O)N[C@@H](CC(=O)O)C(=O)N[C@@H](CSC3CC(=O)N(c4ccc5c(c4)C(=O)OC54c5ccc(O)cc5Oc5cc(O)ccc54)C3=O)C(=O)O)cccc12 (stereo partly drawn) [Conjugate 15, (2R,5S,8S,11S)-8-(4-aminobutyl)-5,11-bis(carboxymethyl)-16-((4-((2-((S)-2-cyano-4,4-difluoropyrrolidin-1-yl)-2-oxoethyl)carbamoyl)quinolin-8-yl)amino)-2-(((1-(3′,6′-dihydroxy-3-oxo-3H-spiro[isobenzofuran-1,9′-xanthen]-5-yl)-2,5-dioxopyrrolidin-3-yl)thio)methyl)-4,7,10,13,16-pentaoxo-3,6,9,12-tetraazahexadecanoic acid] ({X1-Suc}-DKDC(Fluorescein(5-Mal))-OH)
targeting performance in SK-RC-52.hFAP xenografts [1]: rapidly and homogeneously localizes at the tumour site in vivo 1 hour after the intravenous injection, with a high tumour-to-organs selectivity
Kd (hFAP): 0.68 nM
accumulation on SK-RC-52.hFAP cells (SK-RC-52.hFAP): accumulation of conjugate 15 on the cell membrane
accumulation on HT-1080 Wild type cells (HT-1080 Wild type): no accumulation on the cell membrane and in the cytosol
Kd (murine FAP): 11.6 nM
accumulation on SK-RC-52 Wild type cells (SK-RC-52 Wild type): no accumulation on the cell membrane
